Activity calls are given as the source filed them. The rule behind the calls is not given here.
How the values were obtained:
Jurkat [1] = experiment: Cytotoxicity against human Jurkat cells assessed as reduction in cell viability after 24 hrs by MTT assay; format: functional, cell-based
Jurkat [2] = experiment: Cytotoxicity against human Jurkat cells assessed as reduction in cell viability at 50 and 100 uM after 24 hrs by MTT assay; format: functional, cell-based
SK-MEL-147 [3] = experiment: Cytotoxicity against human SK-MEL-147 cells assessed as reduction in cell viability at 50 and 100 uM after 24 hrs by MTT assay; format: functional, cell-based
SK-MEL-147 [4] = experiment: Cytotoxicity against human SK-MEL-147 cells assessed as reduction in cell viability after 24 hrs by MTT assay; format: functional, cell-based; settings: SK-MEL-147, 24 h
Cathepsin B = Cathepsin B (Homo sapiens, UniProt P07858); experiment: Inhibition of cathepsin B (unknown origin) using Z-FR-AMC as substrate by spectrofluorometric analysis
SK-MEL-147 [5] = experiment: Cytotoxicity against human SK-MEL-147 cells assessed as reduction in cell viability in presence of BCL2 inhibitor venetoclax; format: functional, cell-based
Rattus norvegicus [6] = species on record: Rattus norvegicus; experiment: Induction of mitochondrial permeabilization in rat liver mitochondria assessed as mitochondrial transmembrane potential dissipation in presence of ADP by rhodamine-123 dye based spectrofluorometer analysis; format: functional
SK-MEL-147 [7] = experiment: Induction of apoptosis in human SK-MEL-147 cells assessed as mitochondrial membrane potential dissipation after 24 hrs by TMRM staining based fluorescence microscopic method; format: functional, cell-based
SK-MEL-147 [8] = experiment: Induction of apoptosis in human SK-MEL-147 cells assessed as early apoptotic cells at 20 uM after 24 hrs by Annexin V-FITC/propidium iodide staining based flow cytometry; format: functional, cell-based
SK-MEL-147 [9] = experiment: Induction of apoptosis in human SK-MEL-147 cells assessed as late apoptotic cells at 20 uM after 24 hrs by Annexin V-FITC/propidium iodide staining based flow cytometry; format: functional, cell-based
SK-MEL-147 [10] = experiment: Induction of apoptosis in human SK-MEL-147 cells assessed mitochondrial permeabilization after 24 hrs by mitotracker green staining based microscopic analysis; format: functional, cell-based
Rattus norvegicus [11] = species on record: Rattus norvegicus; experiment: Induction of mitochondrial permeabilization in rat liver mitochondria assessed as calcium efflux in presence of DTT by calcium green based spectrofluorometer analysis; format: functional
SK-MEL-147 [12] = experiment: Induction of apoptosis in human SK-MEL-147 cells assessed as increase in reactive oxygen species generation by CM-H2DCFDA staining based flow cytometric analysis; format: functional, cell-based
SK-MEL-147 [13] = experiment: Induction of apoptosis in human SK-MEL-147 cells assessed as effect on BCL-2 protein expression at 20 uM after 24 hrs by western blotting analysis; format: functional, cell-based
SK-MEL [14] = experiment: Cytotoxicity against human SK-MEL-147 cells assessed as reduction in cell viability at EC50 concentration preincubated for 1 hr in presence of BAPTA measured after 24 hrs by MTT assay; format: functional, cell-based
SK-MEL-147 [15] = experiment: Cytotoxicity against human SK-MEL-147 cells assessed as reduction in cell viability at EC50 concentration preincubated for 1 hr in presence of N-acetyl cysteine measured after 24 hrs by MTT assay; format: functional, cell-based
Rattus norvegicus [16] = species on record: Rattus norvegicus; experiment: Induction of mitochondrial permeabilization in rat liver mitochondria assessed as calcium efflux in presence of CsA by calcium green based spectrofluorometer analysis; format: functional
SK-MEL-147 [17] = experiment: Cytotoxicity against human SK-MEL-147 cells assessed as reduction in cell viability at EC50 concentration preincubated for 1 hr in presence of Boc-D-FMK measured after 24 hrs by MTT assay; format: functional, cell-based
SK-MEL [18] = experiment: Cytotoxicity against human SK-MEL-147 cells assessed as reduction in cell viability at EC50 concentration preincubated for 1 hr in presence of EGTA measured after 24 hrs by MTT assay; format: functional, cell-based
SK-MEL-147 [19] = experiment: Induction of apoptosis in human SK-MEL-147 cells assessed as necrotic cells at 20 uM after 24 hrs by Annexin V-FITC/propidium iodide staining based flow cytometry; format: functional, cell-based
Rattus norvegicus [20] = species on record: Rattus norvegicus; experiment: Induction of mitochondrial permeabilization in rat liver mitochondria assessed as calcium efflux by calcium green based spectrofluorometer analysis; format: functional
SK-MEL-147 [21] = experiment: Induction of apoptosis in human SK-MEL-147 cells assessed as increase in BAX expression at 20 uM after 24 hrs by western blotting analysis; format: functional, cell-based
Rattus norvegicus [22] = species on record: Rattus norvegicus; experiment: Induction of mitochondrial permeabilization in rat liver mitochondria assessed as mitochondrial transmembrane potential dissipation in presence of CsA by rhodamine-123 dye based spectrofluorometer analysis; format: functional
Rattus norvegicus [23] = species on record: Rattus norvegicus; experiment: Induction of mitochondrial permeabilization in rat liver mitochondria assessed as mitochondrial transmembrane potential dissipation in presence of DTT by rhodamine-123 dye based spectrofluorometer analysis; format: functional
Procathepsin L = Procathepsin L (Homo sapiens, UniProt P07711); experiment: Inhibition of cathepsin L (unknown origin) using Z-FR-AMC as substrate by spectrofluorometric analysis
Procathepsin L, sequence (P07711 whole entry): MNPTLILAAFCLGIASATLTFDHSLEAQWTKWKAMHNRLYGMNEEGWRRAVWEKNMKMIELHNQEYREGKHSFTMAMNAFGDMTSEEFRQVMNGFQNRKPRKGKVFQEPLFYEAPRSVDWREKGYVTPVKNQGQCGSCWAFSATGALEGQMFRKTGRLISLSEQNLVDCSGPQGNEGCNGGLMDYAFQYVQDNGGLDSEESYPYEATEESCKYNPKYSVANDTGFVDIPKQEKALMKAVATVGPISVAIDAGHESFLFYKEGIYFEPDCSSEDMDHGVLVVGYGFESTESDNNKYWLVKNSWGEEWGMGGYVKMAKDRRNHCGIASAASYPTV

SK-MEL-147 [24] = experiment: Cytotoxicity against human SK-MEL-147 cells assessed as reduction in cell viability at EC50 concentration preincubated for 1 hr in presence of DTT measured after 24 hrs by MTT assay; format: functional, cell-based
SK-MEL-147 [25] = experiment: Cytotoxicity against human SK-MEL-147 cells assessed as reduction in cell viability at EC50 concentration preincubated for 1 hr in presence of E-64 measured after 24 hrs by MTT assay; format: functional, cell-based
Rattus norvegicus [26] = species on record: Rattus norvegicus; experiment: Induction of mitochondrial permeabilization in rat liver mitochondria assessed as mitochondrial transmembrane potential dissipation by rhodamine-123 dye based spectrofluorometer analysis; format: functional
Rattus norvegicus [27] = species on record: Rattus norvegicus; experiment: Induction of mitochondrial permeabilization in rat liver mitochondria assessed as calcium efflux in presence of ADP by calcium green based spectrofluorometer analysis; format: functional
SK-MEL-147 [28] = experiment: Cytotoxicity against human SK-MEL-147 cells assessed as reduction in cell viability at EC50 concentration preincubated for 1 hr in presence of GSH measured after 24 hrs by MTT assay; format: functional, cell-based

## CCOC(=O)c1cc([Te]c2ccccc2)c2cc(OC)ccc2n1
Jurkat [1]
  EC50: 77.4 µM
Jurkat [2]
  Activity: Active
SK-MEL-147 [3]
  Activity: Active
SK-MEL-147 [4]
  EC50: 128 µM

## CCOC(=O)c1cc([Se]c2ccccc2)c2cc(C)ccc2n1
Cathepsin B
  IC50: Not Active
Jurkat [1]
  EC50: 15.3 µM
SK-MEL-147 [5]
  Activity: Active
Rattus norvegicus [6]
  Activity: inactive
SK-MEL-147 [7]
  Activity: Active
SK-MEL-147 [8]
  Activity: Active
SK-MEL-147 [9]
  Activity: Active
SK-MEL-147 [10]
  Activity: Active
Rattus norvegicus [11]
  Activity: inactive
Jurkat [2]
  Activity: Active
SK-MEL-147 [12]
  Activity: Active
SK-MEL-147 [13]
  Activity: inactive
SK-MEL [14]
  Activity: inactive
SK-MEL-147 [15]
  Activity: inactive
SK-MEL-147 [3]
  Activity: Active
Rattus norvegicus [16]
  Activity: inactive
SK-MEL-147 [17]
  Activity: Active
SK-MEL [18]
  Activity: inactive
SK-MEL-147 [4]
  EC50: 12 µM
SK-MEL-147 [19]
  Activity: Active
Rattus norvegicus [20]
  Activity: Active
SK-MEL-147 [21]
  Activity: Active
Rattus norvegicus [22]
  Activity: inactive
Rattus norvegicus [23]
  Activity: inactive
Procathepsin L
  IC50: Not Active
SK-MEL-147 [24]
  Activity: inactive
SK-MEL-147 [25]
  Activity: Active
Rattus norvegicus [26]
  Activity: Active
Rattus norvegicus [27]
  Activity: inactive
SK-MEL-147 [28]
  Activity: inactive

## COc1ccc2nc(-c3cccs3)cc([Se]c3ccccc3)c2c1
Jurkat [1]
  EC50: 99.8 µM
Jurkat [2]
  Activity: Active
SK-MEL-147 [3]
  Activity: Active
SK-MEL-147 [4]
  EC50: > 150 µM

## CCOC(=O)c1cc([Se]Cc2ccccc2)c2cc(OC)ccc2n1
Jurkat [1]
  EC50: 20.8 µM
Jurkat [2]
  Activity: Active
SK-MEL-147 [3]
  Activity: Active
SK-MEL-147 [4]
  EC50: 40.7 µM

## CCOC(=O)c1cc(C#Cc2ccccc2[N+](=O)[O-])c2cc(OC)ccc2n1
Jurkat [1]
  EC50: 54.7 µM
Jurkat [2]
  Activity: Active
SK-MEL-147 [3]
  Activity: Active
SK-MEL-147 [4]
  EC50: > 150 µM

— ChEMBL document CHEMBL4622851, “Cytotoxicity of 4-substituted quinoline derivatives: Anticancer and antileishmanial potential” (Bioorg Med Chem, 2020)
